Laboratory results taken from US20060134102A1, “Lymphotoxin beta receptor agents in combination with chemotherapeutic agents” (Biogen Idec MA Inc., priority 2002, published 2006).
“And” between values parts separate entries of the source, which are not always exact repeats. Equal values may be shown once.

Test system: WiDr human colorectal adenocarcinoma
Test: WiDr xenograft model: growth of established WiDr human colorectal tumors in athymic nude mice (tumor volume/weight, % T/C, Fa, Combination Index)
Conditions: for Fractional Inhibition of Tumor Volume (Fa), Ave. / Tumor Volume, Ave. / Individual Fractional Inhibition of Tumor Volume (Fa) / Individual Tumor Volumes / Fraction Affected / Tumor Volume / Volume Decrease / Median Effect Dose: day 28; for Fractional Inhibition of Tumor Volume (Fa), Ave. / Tumor Volume, Ave.: group average; for Individual Fractional Inhibition of Tumor Volume (Fa) / Individual Tumor Volumes: one line per animal, listed as Gem; for Volume Decrease: vs control
Procedure: Therapeutic agents, i.e. LTβR agonist and chemotherapeutic agents, were administered to athymic nude mice who had been implanted with WiDr tumor cells.
WiDr cells were obtained from the American Type Culture Collection (Manassas, Va.). Cells were grown in vitro in 90% Eagle's Minimum Essential Medium with 2 mM L-glutamine and Earle's Balanced Salt Solution (BSS) adjusted to contain 1.5 g/L sodium bicarbonate, 0.1 mM non-essential amino acids, and 1 mM sodium pyruvate plus 10% fetal bovine serum (FBS) without antibiotics (5% CO2). Bacterial cultures were performed on aliquots of the tumor homogenate preparation that was implanted into the mice to ensure that all cultures were negative for bacterial contamination at both 24 and 48 hours post implant.
When the tumors measured approximately 5 mm in length by 5 mm in width, mice were randomized to treatment and control groups. Body weight measurements were recorded twice-weekly beginning on Day 0.
Tumor measurements were determined using Vernier calipers. Tumor size measurements were recorded regularly according to the study, until the termination of the study. The formula to calculate volume for a prolate ellipsoid was used to estimate tumor volume (mm^3) from 2-dimensional tumor measurements: tumor volume (mm^3)=(length×width^2 [L×W^2])÷2. Assuming unit density, volume was converted to weight (i.e., 1 mm^3=1 mg). Tumor growth inhibition was assessed as % T/C, where T is the mean tumor weight of the treatment group and C is the mean tumor weight of the control group. […] Animals were sacrificed accordingly.
Statistical analysis of the tumor weight measurements was performed according to standard statistical methods. Mean, standard deviation (SD), and standard error of the mean (SEM) were determined for body weight and tumor weight for all dose groups at all assessments.
Antitumor efficacy was determined by comparing each treatment group's tumor volume with the control group's tumor volume. Mean tumor volume decrease was calculated as the difference between the control group and the treatment group mean tumor volume. The fractional inhibition of tumor volume, i.e., the fraction affected (Fa), was calculated by dividing the treatment group mean tumor volume decrease by the control group mean tumor volume. […] Further statistical analysis was performed accordingly.

Nc1ccn([C@@H]2O[C@H](CO)[C@@H](O)C2(F)F)c(=O)n1 [Gemcitabine, gemcitabine, reference compound]
Fractional Inhibition of Tumor Volume (Fa), Ave. (Gem 12.5 mg/kg): 0.403
Tumor Volume, Ave. (Gem 12.5 mg/kg): 479.5
Individual Fractional Inhibition of Tumor Volume (Fa) (Gem 12.5 mg/kg): 0.571 and 0.001 and 0.524 and 0.490 and 0.427 and 0.479 and 0.421 and 0.632 and −0.058 and 0.543
Individual Tumor Volumes (Gem 12.5 mg/kg): 344.8 and 802.2 and 382.6 and 409.5 and 459.9 and 418.6 and 465.3 and 295.5 and 849.7 and 367.1
Fractional Inhibition of Tumor Volume (Fa), Ave. (Gem 25 mg/kg): 0.603
Tumor Volume, Ave. (Gem 25 mg/kg): 319.0
Individual Fractional Inhibition of Tumor Volume (Fa) (Gem 25 mg/kg): 0.678 and 0.561 and 0.657 and 0.440 and 0.505 and 0.574 and 0.712 and 0.703 and 0.559 and 0.641
Individual Tumor Volumes (Gem 25 mg/kg): 258.5 and 352.8 and 275.7 and 450.0 and 397.8 and 342.6 and 230.9 and 238.8 and 354.3 and 288.2
Fractional Inhibition of Tumor Volume (Fa), Ave. (Gem 50 mg/kg): 0.594
Tumor Volume, Ave. (Gem 50 mg/kg): 326.0
Individual Fractional Inhibition of Tumor Volume (Fa) (Gem 50 mg/kg): 0.602 and 0.812 and 0.747 and 0.502 and 0.445 and 0.538 and 0.447 and 0.774 and 0.659 and 0.417
Individual Tumor Volumes (Gem 50 mg/kg): 319.6 and 151.2 and 203.1 and 400.1 and 446.1 and 370.9 and 444.1 and 181.8 and 274.1 and 468.6
Fraction Affected (Gemcitabine 12.5 mg/kg given separately): 0.403
Tumor Volume (Gemcitabine 12.5 mg/kg): 479.5
Volume Decrease (Gemcitabine 12.5 mg/kg): 323.7
Fraction Affected (Gemcitabine 25 mg/kg given separately): 0.603
Tumor Volume (Gemcitabine 25 mg/kg): 318.9
Volume Decrease (Gemcitabine 25 mg/kg): 484.3
Tumor Volume (Gemcitabine 50 mg/kg): 326.0
Volume Decrease (Gemcitabine 50 mg/kg): 477.2
Median Effect Dose (Gemcitabine combined with huCBE11 (0.568:1)): 4.2 mg/kg
Median Effect Dose (Gemcitabine given separately): 16.7 mg/kg
Inhibition of tumor growth vs vehicle control (gemcitabine 12.5 mg/kg, Day 41, separate study): No significant inhibition
% T/C (gemcitabine 25 mg/kg, Days 21 and 28): below 42%
Activity by NCI criteria (% T/C of 42 or less) (gemcitabine 50 mg/kg to […], Day 41): inactive
% T/C (gemcitabine 50 mg/kg, Days 17 to 28): below 42%
